According to patent publication US20050191348A1 (priority 2004, published 2005):

Columns and labels:
rat brain MAO-A = biological target: T1, rat brain MAO-A (Rattus norvegicus, UniProt P21396); assay: In vitro inhibition of rat brain MAO-A; format: biochemical; conditions: rat brain homogenate, 60 min preincubation at 37° C., 14C-5-hydroxytryptamine
T1 construct: from tissue; host or cells: rat brain homogenate
T1 sequence (P21396 1-526): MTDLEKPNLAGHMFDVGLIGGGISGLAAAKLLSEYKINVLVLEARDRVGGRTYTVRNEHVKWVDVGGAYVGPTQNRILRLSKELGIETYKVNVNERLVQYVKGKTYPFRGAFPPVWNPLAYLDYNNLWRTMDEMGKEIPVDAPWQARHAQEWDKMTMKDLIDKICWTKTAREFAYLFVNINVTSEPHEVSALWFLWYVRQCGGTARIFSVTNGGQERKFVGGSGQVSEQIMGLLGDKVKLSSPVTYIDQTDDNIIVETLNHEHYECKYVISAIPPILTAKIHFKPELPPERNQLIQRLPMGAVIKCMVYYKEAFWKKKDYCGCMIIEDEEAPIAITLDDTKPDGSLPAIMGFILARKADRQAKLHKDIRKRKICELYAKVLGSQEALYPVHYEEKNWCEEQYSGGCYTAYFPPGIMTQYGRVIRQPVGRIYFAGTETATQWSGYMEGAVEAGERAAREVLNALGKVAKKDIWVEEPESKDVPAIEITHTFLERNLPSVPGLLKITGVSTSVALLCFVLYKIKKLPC
Protocol: (§1) To determine the activity of MAO-A and MAO-B, the test compound is added to a suitable dilution of the enzyme preparation from rat brain (70 μg protein for MAO-B and 150 μg MAO-A assay) in 0.05 M phosphate buffer (pH 7.4). Tthe mixture is incubated together with […], a specific inhibitor of MAO-B (for determination of MAO-A) or with […], a specific inhibitor of MAO-A (for determination of MAO-B). Incubation is carried for 1 h at 37° C. before addition of ^14C-5-hydroxytryptamine binoxalate ([…]), for determination of MAO-A, or ^14C-phenylethylamine ([…]), for determination of MAO-B, and incubation is continued for 30 min or 20 min, respectively. The reaction is stopped with 2 M ice-cold citric acid, and the metabolites are extracted and determined by liquid-scintillation counting in cpm units.
Thus, in one experiment, the in vitro inhibitory activity of 5-(4-propargylpiperazin-1-ylmethyl)-8-hydroxy-quinoline (HLA20) and the 8-hydroxyquinoline derivative designated M32 (both iron chelators disclosed in the International Application PCT/IL03/00932), and propargylamine (P) (0.1, 1, 10, 100 μM) were tested against rat brain MAO-A. The test compounds were added to buffer containing 0.05 μM deprenyl and were incubated with the tissue homogenate for 60 min at 37° C. before addition of ^14C-5-hydroxytryptamine. […]

rat brain MAO-B = biological target: T2, rat brain MAO-B (Rattus norvegicus, UniProt P19643); assay: In vitro inhibition of rat brain MAO-B; format: biochemical
T2 construct: from tissue; host or cells: rat brain homogenate
T2 sequence (P19643 1-520): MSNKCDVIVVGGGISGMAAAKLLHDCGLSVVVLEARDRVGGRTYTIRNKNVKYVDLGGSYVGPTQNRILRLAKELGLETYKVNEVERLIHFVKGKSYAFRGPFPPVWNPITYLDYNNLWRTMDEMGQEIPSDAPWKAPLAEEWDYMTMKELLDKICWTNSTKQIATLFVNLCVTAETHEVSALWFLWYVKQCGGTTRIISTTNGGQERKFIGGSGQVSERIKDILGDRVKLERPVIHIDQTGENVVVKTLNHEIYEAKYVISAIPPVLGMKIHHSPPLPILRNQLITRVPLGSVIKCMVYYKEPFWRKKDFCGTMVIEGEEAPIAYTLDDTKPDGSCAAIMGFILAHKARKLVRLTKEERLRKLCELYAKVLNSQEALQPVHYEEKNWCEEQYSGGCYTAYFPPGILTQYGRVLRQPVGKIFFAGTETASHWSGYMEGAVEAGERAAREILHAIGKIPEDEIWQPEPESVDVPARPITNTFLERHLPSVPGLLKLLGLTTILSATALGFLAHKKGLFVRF
Protocol: as §1
In another experiment, the in vitro inhibitory activity of propargylamine (P) against rat brain MAO-B was tested. Propargylamine (0.1, 1, 10, 100 μM) was added to buffer containing 0.05 μM clorgylin and was incubated with the tissue homogenate for 60 minutes at 37° C. before addition of ^14C-5-phenylethylamine. MAO-BA activity in presence of the test compound was expressed as a percentage of that in control samples. Mean values shown±SEM.

Structure (SMILES): C#CCN [propargylamine]
- IC50 (rat brain MAO-A): ~66 µM
- MAO-B versus MAO-A selectivity (rat brain MAO-B; from IC50 values, rat brain): preferentially selective for MAO-B inhibition
- IC50 (rat brain MAO-B; rat brain homogenate, 60 min preincubation at 37° C., 14C-phenylethylamine): ~10 µM
